{"source": "patent US10292958B2", "about": "“Lipid-containing compositions and methods of use thereof” (ASHA NUTRITION SCIENCES, INC., priority 2008, dated 2019)", "key": {"[1]": {"conditions": "cited from earlier work; for effect on blood cholesterol: saturated fats of chain-length 12, 14 and 16"}, "[2]": {"test_system": "ovulation", "experiment": "Case study on ovulation, reproductive disorders", "type": "in vivo, human", "conditions": "person", "from_the_text": "In a host subject cessation of ovulation (as indicated by watery pale menstrual cycles), intense ovulation-related pains and anovulatry menstruation at extremely low omega-6 fatty acids in diet were observed; olive oil being the main fat source. It is hypothesized herein that this was due to deficiency of omega-6 derived prostaglandins, which aid ovulation."}, "[3]": {"test_system": "inflammation, immunity, infection", "conditions": "menopausal person; 11 g LA; ALA reduced from 1.8 g to 1.2 g"}}, "data": [{"molecule": "CCCCCCCCCCCCCCCC(=O)O", "note": "[palmitic acid]", "values": [{"measurement": "effect on blood cholesterol", "setting": "[1]", "value": "elevate blood cholesterol"}]}, {"molecule": "CCCCCCCCCCCCCCCCCC(=O)O", "note": "[Stearic acid]", "values": [{"measurement": "lowering of cholesterol", "setting": "[1]; in vivo", "value": 21, "unit": "%"}]}, {"molecule": "CC(C)Cc1ccc(C(C)C(=O)O)cc1", "note": "(stereo not shown) [Advil]", "values": [{"measurement": "cessation of ovulation, ovulation-related pains, anovulatory menstruation", "setting": "[2]", "value": "same phenomenon was observed"}]}, {"molecule": "CCCCCCCCCCCCCC(=O)O", "note": "[myristic acid]", "values": [{"measurement": "effect on blood cholesterol", "setting": "[1]", "value": "elevate blood cholesterol"}]}, {"molecule": "CCCCCCCCCCCC(=O)O", "note": "[lauric acid]", "values": [{"measurement": "effect on blood cholesterol", "setting": "[1]", "value": "elevate blood cholesterol"}]}, {"molecule": "CCCCCCCC/C=C\\CCCCCCCC(=O)O", "note": "[oleic acid]", "values": [{"measurement": "lowering of LDL", "setting": "[1]; in vivo", "value": 15, "unit": "%"}]}, {"molecule": "CC/C=C\\C/C=C\\C/C=C\\CCCCCCCC(=O)O", "note": "[ALA, Alpha-linolenic Acid]", "values": [{"measurement": "symptoms (spinal burning sensation, heat in the body, delayed wound healing, vaginal yeast infection)", "setting": "[3]", "value": "disappeared"}]}]}
